Data published in patent US8106062B1, “Calcium channel blockers” (Diakron Pharmaceuticals, Inc., priority 2003, dated 2012).
Each block holds one molecule with its values, some of them ahead of it.

What was measured:
[1] = biological target: T1, T-type calcium channels (α1G) (Homo sapiens, UniProt O43497); experiment: Patch-clamp assay for T-channel blockage in HEK cells; format: cell-based; conditions: time course of T-channel blockage, 500 nM and 1 uM, preliminary numbers
T1 construct: expressed in transfected cells
T1 sequence (O43497 whole entry): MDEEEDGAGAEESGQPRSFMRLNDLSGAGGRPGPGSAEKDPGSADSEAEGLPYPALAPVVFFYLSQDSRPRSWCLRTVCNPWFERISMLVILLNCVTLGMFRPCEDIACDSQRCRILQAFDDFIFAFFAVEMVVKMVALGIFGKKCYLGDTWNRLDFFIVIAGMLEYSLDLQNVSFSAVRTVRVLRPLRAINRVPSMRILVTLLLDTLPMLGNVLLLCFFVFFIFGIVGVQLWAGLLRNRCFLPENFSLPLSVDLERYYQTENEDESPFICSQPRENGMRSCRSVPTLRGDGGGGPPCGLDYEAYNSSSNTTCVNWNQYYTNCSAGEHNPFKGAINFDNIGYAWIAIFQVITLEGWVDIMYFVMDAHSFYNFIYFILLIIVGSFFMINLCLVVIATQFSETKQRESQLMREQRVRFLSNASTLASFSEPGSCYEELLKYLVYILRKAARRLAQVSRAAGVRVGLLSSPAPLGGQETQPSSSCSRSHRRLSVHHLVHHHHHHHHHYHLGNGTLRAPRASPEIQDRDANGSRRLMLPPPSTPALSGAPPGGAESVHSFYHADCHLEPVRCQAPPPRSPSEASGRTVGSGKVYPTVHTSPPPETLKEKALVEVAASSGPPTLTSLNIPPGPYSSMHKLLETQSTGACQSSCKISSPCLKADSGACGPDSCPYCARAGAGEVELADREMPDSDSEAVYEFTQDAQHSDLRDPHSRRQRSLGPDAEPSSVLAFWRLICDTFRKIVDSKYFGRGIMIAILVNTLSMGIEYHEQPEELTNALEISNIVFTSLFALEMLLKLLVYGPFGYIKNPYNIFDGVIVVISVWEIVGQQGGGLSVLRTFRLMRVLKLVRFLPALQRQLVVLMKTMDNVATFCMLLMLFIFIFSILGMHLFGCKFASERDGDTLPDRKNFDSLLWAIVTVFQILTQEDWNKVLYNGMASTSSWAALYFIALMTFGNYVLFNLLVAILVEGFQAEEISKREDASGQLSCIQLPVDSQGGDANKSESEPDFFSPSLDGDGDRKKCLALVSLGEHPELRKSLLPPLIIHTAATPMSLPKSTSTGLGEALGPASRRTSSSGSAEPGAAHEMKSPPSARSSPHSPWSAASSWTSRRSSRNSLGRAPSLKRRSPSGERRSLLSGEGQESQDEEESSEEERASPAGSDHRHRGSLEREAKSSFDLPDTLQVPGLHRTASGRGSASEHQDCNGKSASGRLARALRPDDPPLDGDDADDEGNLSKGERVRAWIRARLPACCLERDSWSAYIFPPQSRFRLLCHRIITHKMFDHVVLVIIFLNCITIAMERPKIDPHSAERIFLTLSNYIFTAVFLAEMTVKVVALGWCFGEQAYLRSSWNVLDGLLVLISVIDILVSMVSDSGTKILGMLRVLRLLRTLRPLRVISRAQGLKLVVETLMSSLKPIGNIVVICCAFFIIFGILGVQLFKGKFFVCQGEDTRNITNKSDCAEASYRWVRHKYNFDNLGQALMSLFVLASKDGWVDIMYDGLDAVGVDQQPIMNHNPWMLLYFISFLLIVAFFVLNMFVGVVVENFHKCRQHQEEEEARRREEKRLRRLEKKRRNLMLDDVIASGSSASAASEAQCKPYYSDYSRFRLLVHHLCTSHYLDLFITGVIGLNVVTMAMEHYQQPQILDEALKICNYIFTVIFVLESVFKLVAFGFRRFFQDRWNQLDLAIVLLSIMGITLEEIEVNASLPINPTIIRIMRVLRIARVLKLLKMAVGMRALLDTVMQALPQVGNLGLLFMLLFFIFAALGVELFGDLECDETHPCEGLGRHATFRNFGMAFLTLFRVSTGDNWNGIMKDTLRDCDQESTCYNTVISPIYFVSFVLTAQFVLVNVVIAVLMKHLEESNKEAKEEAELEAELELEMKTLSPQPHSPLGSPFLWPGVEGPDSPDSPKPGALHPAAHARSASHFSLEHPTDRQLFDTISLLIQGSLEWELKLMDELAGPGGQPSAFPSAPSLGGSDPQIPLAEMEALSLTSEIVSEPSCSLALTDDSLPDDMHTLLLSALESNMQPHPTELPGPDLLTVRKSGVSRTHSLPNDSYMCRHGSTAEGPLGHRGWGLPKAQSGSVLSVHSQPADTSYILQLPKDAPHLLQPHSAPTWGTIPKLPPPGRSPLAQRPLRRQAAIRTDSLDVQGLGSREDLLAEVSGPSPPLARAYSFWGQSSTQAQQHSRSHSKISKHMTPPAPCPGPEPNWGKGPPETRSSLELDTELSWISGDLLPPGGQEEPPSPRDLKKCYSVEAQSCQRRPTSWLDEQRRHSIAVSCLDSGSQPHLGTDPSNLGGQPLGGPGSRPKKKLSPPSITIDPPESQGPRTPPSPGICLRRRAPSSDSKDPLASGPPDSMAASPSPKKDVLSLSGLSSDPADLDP
Procedure: Specifically, individual HEK cells were tested in vitro using a patch-clamp assay for T-channel blockage. Tests were performed at concentrations of 500 nM and 1 uM, and the time course of the blockage was followed for a period of several minutes.
In the past, patch clamp assays for T-channel activity would measure inhibition of calcium-ion-mediated current over the course of only a few minutes, e.g., 2, 3, or 5 minutes. […] The assays described herein can be used to differentiate between conventional-type T-channel blockers, which usually show a time constant of blockage of a few seconds, and the long-acting T-channel blockers, which show time constants between 1 minute and 2, 4, 5, 10 or more minutes. It is the latter group of compounds that is particularly interesting and useful in the present invention.
T-type calcium channels (α1G) were stably expressed in HEK293 cells and maintained at 37° C. in DMEM. Cells were released from dishes using trypsin and EGTA or Accutase and studied within 4 hours of isolation. Individual cells were placed on the stage of an inverted microscope and patched with pipettes pulled from aluminasilicate glass capillary tubes, which had resistances of 0.8-1.5 Mohm. Currents were recorded using an Axopatch 200 (Axon Instruments, Inc.) and pClamp data acquisition software (8.1). The pipette solution contained (in mM): KCl 130, EGTA 11, HEPES 10, MgATP 5, pH=7.4. The bath solution contained (in mM): NaCl 140, CaCl2 1, HEPES 10, pH=7.4. Test compounds were diluted into bath solution to the desired concentration (100 nM-10 μM) from a stock solutions (3 or 10 mM in DMSO). Current measurements were made at 20-23° C. Cells were held at −110 mV in order to maximize occupancy in the closed state and depolarized for 100 ms to various potentials. Currents were capacity corrected using 16-64 subthreshold responses (voltage steps of 10 or 20 mV) and leak subtracted, based on linear interpolation between the current at the holding potential and 0 mV. Cells were moved from a control chamber to a chamber with test compound and the effect of the drug was assessed using a voltage clamp protocol that stepped to −30 mV for 100 ms from a holding potential of −110 mV once every 5 s. After each 10-13 minutes, the train protocol was interrupted and a full current voltage relationship obtained. In general for each compound, four cells were studied for a minimum of 13 minutes, two in drug at 500 nM and two at 1 μM. In some cases other concentrations were also studied. Data were analyzed using Matlab (Mathworks, Natick, Mass.). Drug efficacy was estimated using the relationship: Blocked Fraction=[Drug]/(IC50+[Drug])
The time course of block by drug was fit to a single exponential function: Peak Current=A*exp(−t/τ)+B where A is the initial amplitude of the current, B the final level, t the time after the cell was exposed to drug, and τ, the time constant, i.e. the time it took for the current to be reduced to within 1/e of its final value, B. In general, modification τs are influenced both by drug on rate and off rate, although washout was achievable for only one compound, so off rates are so slow (small) that T can be taken to essentially represent 1/kon. For some compounds despite the presence of the drug in the chamber, modification occurred with a delay. This was quantified from the time modification was first observed. […]

[2] = tested on: spontaneously hypertensive rats; experiment: Systolic blood pressure (tail cuff) in spontaneously hypertensive rats after IV tail injection; format: in vivo, rat; conditions: SHR
Procedure: In addition to the referenced in vitro studies, in vivo studies have also been conducted. The in vivo hypertension model used here involves administration of compound to spontaneously hypertensive rats through IV tail injection of compound. Systolic blood pressure is then measured using a tail cuff.
Fifteen male spontaneously hypertensive rats (SHR) were used in these studies. The animals were 12 weeks old at arrival and 15 weeks old at the start of study. The animals were divided into five groups, with three animals in each group. The starting, baseline systolic blood pressure for all animals included in the study was 190-220 mmHg. The animals were housed in contact bedding. They were fed Purina 5008. Six days after arrival, the animals were trained in the blood pressure apparatus for four days before the start of the study.
Compounds were administered to the animals by tail vein injection. Dose levels were 0.5 mL. In each study, one group of animals served as control, while the others were injected with a dosage of a compound.
The study was conducted using the schedule set forth below: […]

[3] = tested on: spontaneously hypertensive rats; conditions: 30 mg/Kg oral, cited from earlier work
[4] = multiple dose study, three injections spaced about 25 hours apart, FIG. 2
[5] = single dose 20 mg/Kg, IV tail injection, FIG. 1

Molecule: CCCCCCCCCCCCCCCc1cccc(OC(C)C)c1C1C(C(=O)OC)=C(C)NC(C)=C1C(=O)OC [PPK5, dimethyl 1,4-dihydro-4-(2′-isopropoxy-6′-pentadecylphenyl)-2,6-dimethyl-3,5-pyridine dicarboxylate]
- Time constant [1]: 8 min
- additional blood pressure drop after the second injection [2, 4]: ~12 mmHg
- blood pressure drop after first injection [2, 4]: about 55 mmHg
- time systolic pressure remained at the reduced level ([2]; single dose 20 mg/Kg, IV tail injection): > 24 h
- systolic pressure drop in the first 5 hours [2, 5]: about 48 mmHg
- systolic pressure drop in the first 10 hours [2, 5]: about 55 mmHg

Molecule: COCC(=O)O[C@]1(CCN(C)CCCc2nc3ccccc3[nH]2)CCc2cc(F)ccc2[C@@H]1C(C)C [Mibefradil]
- systolic blood pressure drop in the first 5 hours ([3]; FIG. 1): about 85 mmHg
- systolic blood pressure recovery by the end of 24 hours ([3]; FIG. 1): about 45 mmHg
- rapid drop of blood pressure ([3]; FIG. 2): 85 mmHg
- recovery of blood pressure within 24 hours of administration ([3]; FIG. 2): more than 50%

Molecule: 3,6-dihydro-4-methyl-6-[2-ethoxy-6-pentadecylphenyl]-2-oxo-1,5-(2H)-pyrimidinedicarboxylic acid 1-ethyl 5-isopropyl diester [PPK35]
- Time constant [1]: 10 min

The remaining lines, values ahead:

- Time constant [1]: 13 min
Molecule: CCCCCCCCCCCCCCCc1cccc(OC(C)C)c1C1C(C(=O)OCC)=C(C)NC(=S)N1C(=O)CC (centres unmarked) [PPK51, 1,2,3,4-tetrahydro-6-methyl-4-[2-isopropoxy-6-pentadecylphenyl]-3-(1-oxo-propyl)2-thioxo-5-pyrimidine carboxylic acid ethyl ester]

- Time constant [1]: 10 min
Molecule: CCCCCCCCCCCCCCCc1cccc(OCC)c1C1C(C(=O)OCC)=C(C)NC(=S)N1C(=O)CC (centres unmarked) [PPK50, 1,2,3,4-tetrahydro-6-methyl-4-[2-ethoxy-6-pentadecylphenyl]-3-(1-oxo-propyl)2-thioxo-5-pyrimidine carboxylic acid ethyl ester]

- Time constant [1]: 1 min
Molecule: CCCCCCCCCCCCCCCc1cccc(OC)c1C1NC(=O)NC(C)=C1C(=O)OCC (centres unmarked) [PPK22, 5-ethoxycarbonyl-4-(2-methoxy-6-pentadecylphenyl)-6-methyl-3,4-dihydropyrimidin-2(1H)-one]
